Results on twelve compounds are retold here after patent US4351949A, “Bicyclic prostaglandin analogs and method of synthesis” (Iowa State University Research Foundation, Inc., priority 1981, dated 1982).

The test system of test [1] is arachidonic acid induced platelet aggregation. Briefly: in vitro arachidonic acid induced blood platelet aggregation. It is filed as cell-based. On the procedure: The compounds of Examples 1 through 11 were tested against arachidonic acid induced platelet aggregation.
Test [2] relates to experimental thrombosis. The test is described as follows: in vivo biolaser model of experimental thrombosis (rabbit ear chamber). The following applies: combined with anagrelide at a lower than threshold level. An excerpt:
These compounds were studied in vivo in an animal model for experimental thrombosis. The use of this model is described in detail in the reprint, Use of the Biolaser in the Evaluation of Anti-Thrombotic Agents, J. S. Fleming et al. "Platelets and Thrombosis", eds. S. Sherry and A. Scriabrine, University Park Press, 1974, Baltimore, which is incorporated herein by reference.
In brief, a micro-injury is created by a laser beam focused through a microscope onto the endothelium surface of a small blood vessel in a surgically implanted ear chamber of a rabbit. The injury induces the rapid formation of a platelet thrombis which can be measured. […] Prostacyclin is active in the biolaser model when infused intraveneously. The results of these tests preliminarily indicate that there is a super additive interaction between anagrelide and the compounds of this invention. […] To date, no other compounds have undergone significant in vivo analysis in the rabbit ear test.

Test [3] has as its system experimental thrombosis. The following applies: cited from earlier work; for inhibition of laser-induced thrombosis by potent inhibitors of platelet aggregation: rabbit ear chamber, general statement on the model.
Setting [4] is: concentration of agent necessary to reduce by 50% the in vitro blood platelet aggregation caused by addition of arachidonic acid, read-out: EC 50 vs Arachidonic Acid.
Setting [5] is: Platelet, for comparison, vs arachidonic acid, read-out: EC 50 of comparison compounds.

Values after ≈ are worked out from the molar mass of the structure shown. Like-named read-outs stand apart in the source and are kept apart here.

As for `CCCCCC(O)C#CC1C2CCC(C2)C1C/C=C/CCCCCCCC(=O)OC` (stereo not drawn) [Example 4], the EC50 in test [1] (setting [4]) was 0.4 µg/mL (≈ 0.96 µM).

As for `CCCCCC(O)C#CC1C2CCC(C2)C1C/C=C/CCCC(=O)OC` (stereo not drawn) [Example 2], in test [1] (setting [4]), the EC50 stood at 0.07 µg/mL (≈ 0.194 µM). The “reduction in thrombosis in combination with anagrelide” value in test [2] is on record as “substantial reduction in thrombosis”.

For `CCCCCC(O)C#CC1C2CCC(CC2)C1C/C=C/CCCC(=O)OC` (stereo not drawn) [Example 8], the EC50 in test [1] (setting [4]) amounted to 5.8 µg/mL (≈ 15.5 µM).

Consider `CCCCC[C@H](O)/C=C/[C@@H]1[C@H]2C/C(=C/CCCC(=O)O)O[C@H]2C[C@H]1O` [prostacyclin], for which, in test [3] (infused intravenously, rabbit), the “activity in the biolaser model” value is on record as “active”. Moreover, the “inhibition of laser-induced thrombosis by potent inhibitors of platelet aggregation” value in test [3] is “significant inhibition”. Besides, the EC50 in test [1] (setting [5]) turned out to be 0.004 µg/mL (≈ 0.0113 µM).

As for `CCCCCC(O)C#CC1C2CCC(C2)C1C/C=C/C(=O)O` (stereo not drawn) [Example 5], the EC50 in test [1] (setting [4]) worked out at 4 µg/mL (≈ 13.1 µM).

On to `O=C1CN2Cc3c(ccc(Cl)c3Cl)N=C2N1` [anagrelide], for which, in test [3], the “inhibition of laser-induced thrombosis by potent inhibitors of platelet aggregation” value is given as “significant inhibition”.

In the case of `CCCCCC(O)C#CC1C2CCC(C2)C1C/C=C/CCCCCCCC(=O)O` (stereo not drawn) [Example 3], in test [1] (setting [4]), the EC50 was determined as 1 µg/mL (≈ 2.48 µM).

`CCCCCC(O)C#CC1C2C=CC(C2)C1C/C=C/CCCC(=O)OC` (stereo not drawn) [Example 7]: the EC50 in test [1] (setting [4]) came out at 3.6 µg/mL (≈ 10 µM).

As to `CCCCCC(O)C#CC1C2CCC(C2)C1C/C=C/CCCC(=O)O` (stereo not drawn) [Example 1], the EC50 in test [1] (setting [4]) stood at 0.045 µg/mL (≈ 0.13 µM).

Consider `CCCCCC(O)C#CC1C2CCC(C2)C1C/C=C/C(=O)OC` (stereo not drawn) [Example 6], for which the EC50 in test [1] (setting [4]) stood at 8 µg/mL (≈ 25.1 µM).

`CCCCC[C@H](O)/C=C/[C@H]1[C@H](O)CC(=O)[C@@H]1CCCCCCC(=O)O` [PGE1, reference compound]: the EC50 in test [1] (setting [5]) turned out to be 0.018 µg/mL (≈ 0.0508 µM).

On to `CCCCCC(O)C#CC1C2CCC(C2)C1C/C=C/CCCCO` (stereo not drawn) [Example 9], for which the EC50 in test [1] (setting [4]) came out at 3.6 µg/mL (≈ 10.8 µM).
